# Measured values as given in patent publication US6444668B1 (Wyeth, priority 1999, dated 2002).
row,SMILES,melting point [°C]
1,"CN1C(=O)OC(C)(C)c2cc(-c3cc(F)cc(Br)c3)ccc21 [Example 45, 6-(3-Bromo-5fluorophenyl)-1,4,4-trimethyl-1,4-dihydrobenzo[d][1,3]oxazin-2-one]",157 to 158
2,"COc1cccc(-c2ccc3c(c2)NC(=O)OC3(C)C)c1 [Example 49, 7-(3-Methoxy-phenyl)-4,4-dimethyl-1,4-dihydro-benzo[d][1,3]-oxazin-2-one]",167 to 168
3,"CC1(C)OC(=O)Nc2ccc(-c3cccc(C(=O)c4ccccc4)c3)cc21 [Example 51, 6-(3-Benzoyl-phenyl)-4,4-dimethyl-1,4dihydro-benzo[d][1,3]-oxazin-2-one]",156 to 157
4,"CC1(C)OC(=O)Nc2ccc(-c3cccc(-c4nnn[nH]4)c3)cc21 [Example 52, 4,4-Dimethyl-6-[3-(1H-tetrazol-5-yl)-phenyl]-1,4dihydrobenzo[d][1,3]oxazin-2-one]",238 to 240
5,"N#Cc1cc(-c2ccc3c(c2)C(C2CC2)(C2CC2)OC(=O)N3)cs1 [Example 53, 4-(4,4-Dicyclopropyl-2-oxo-1,4-dihydro-2H-benzo[d][1,3]oxazin-6yl)-thiophene-2-carbonitrile]",244 to 245
6,"CC1(C)OC(=O)Nc2ccc(-c3cc(Br)cc(OC(F)(F)F)c3)cc21 [Example 57, 6-(3-Bromo-5-trifluoromethoxy-Phenyl)-4,4-dimethyl-1,4-dihydrobenzo[d][1,3]-oxazin-2-one]",214 to 216
7,"CC1(C)OC(=O)Nc2ccc(-c3cc(C#N)cc(OC(F)(F)F)c3)cc21 [Example 59, 3-(4,4-Dimethyl-2-oxo-1,4-dihydro-2H-benzo[d][1,3]oxazin-6-yl)-5-trifluoromethoxy-benzonitrile]",227 to 228
8,"CC1(C)OC(=O)Nc2ccc(-c3cc(F)cc(F)c3)cc21 [Example 60, 6-(3,5-difluoro-phenyl)-4,4-dimethyl-1,4-dihydrobenzo-[d][1,3]oxazin-2-one]",218 to 219
9,"CC1(C)OC(=O)Nc2ccc(-c3cc(C(F)(F)F)cc(C(F)(F)F)c3)cc21 [Example 62, 6-(3,5-Bis-trifluoromethyl-phenyl)-4,4-dimethyl-1,4-dihydrobenzo[d][1,3]oxazin-2-one]",258 to 260
10,"COc1cc(C#N)cc(-c2ccc3c(c2)C(C)(C)OC(=O)N3)c1 [Example 63, 3-(4,4-Dimethyl-2-oxo-1,4-dihydro-2H-benzo[d][1,3]oxazin-6-yl)-5-methoxy-benzonitrile]",254 to 255
11,"CCOC(OCC)N1C(=O)OC(C)(C)c2cc(-c3cc(F)cc(C#N)c3)ccc21 [Example 66, 3(1-Diethoxymethyl-4,4-dimethyl-2-oxo-1,4-dihydro-2H-benzo[d][1,3]oxazin-6-yl)-5-fluoro-benzonitrile]",123 to 124
12,"COCN1C(=O)OC(C)(C)c2cc(-c3cc(F)cc(C#N)c3)ccc21 [Example 67, 3-Fluoro-5(1-methoxymethyl-4,4-dimethyl-2-oxo-1,4-dihydro-2H-benzo[d][1,3]oxazin-6-yl)-benzonitrile]",169 to 171
13,"CC1(C)OC(=O)Nc2c(F)cc(-c3ccc(F)c(Cl)c3)cc21 [Example 71, 6-(3-Chloro-4-fluoro-phenyl)-8-fluoro-4,4-dimethyl-1,4-dihydrobenzo[d][1,3]-oxazin-2-one]",246 to 248
14,"C#Cc1cccc(-c2ccc3c(c2)C(C)(C)OC(=O)N3)c1 [Example 74, 6-(3-Ethynyl-phenyl)-4,4-dimethyl-1,4dihydro-benzo[d][1,3]-oxazin-2-one]",171 to 172
15,"CC1(C)OC(=O)Nc2ccc(-c3cc(Cl)cc(C#N)c3)cc21 [Example 78, 3-Chloro-5(4,4-dimethyl-2-oxo-1,4-dihydro-2H-benzo[d][1,3]oxazin-6-yl)-benzonitrile]",256 to 257
16,"CC1(C)OC(=O)Nc2ccc(-c3cccc(-c4nccs4)c3)cc21 [Example 81, 4,4-Dimethyl-6(3-thiazol-2-yl-phenyl)-1,4-dihydro-benzo[d][1,3]oxazin-2-one]",223 to 224
